Experimental data taken from US8883841B2, “Oncogenic ras-specific cytotoxic compound and methods of use thereof” (The Board of Regents of the University of Texas System, priority 2005, dated 2014).
Like-named read-outs stand apart in the source and are kept apart here.

Columns and labels:
[1] = test system: H1299 cells; assay: Cell viability, H1299 lung cancer cells; format: cell-based, human; conditions: for IC50: Homo sapiens
[2] = test system: H1395; assay: Cell viability, H1395 lung cancer cells; format: cell-based, human; conditions: for IC50: Homo sapiens
[3] = test system: H226B cells; assay: Cell viability, H226B lung cancer cells; format: cell-based, human; conditions: for IC50: Homo sapiens
[4] = test system: Hey; assay: Cell viability, Hey ovary cancer cells; format: cell-based
[5] = test system: miapac; assay: Cell viability, miapac pancreatic cancer cells; format: cell-based, human; conditions: for IC50: Homo sapiens, Pancreatic cancer cell, read-out: IC50 (−LogM) (converted)
[6] = test system: H2009; assay: Cell viability, H2009 lung cancer cells; format: cell-based, human; conditions: for IC50: Homo sapiens
[7] = test system: Heb46; assay: Cell viability, Heb46 kidney cells; format: cell-based
[8] = test system: AsPC-1; assay: Cell viability, AsPC-1 pancreatic cancer cells; format: cell-based, human; conditions: for IC50: Homo sapiens
[9] = test system: Capanc-1; assay: Cell viability, Capanc-1 pancreatic cancer cells; format: cell-based, human; conditions: capanc1, Pancrease
[10] = test system: T29Kt1 cells; assay: cells; conditions: Homo sapiens, T29Kt1, read-out: IC50 in T29k cells, Table 1
[11] = test system: CT116P53; assay: Cell viability, CT116P53 colon cancer cells; format: cell-based, human; conditions: for IC50: Homo sapiens, read-out: IC50 (−LogM) (converted)
[12] = test system: HKE3; assay: Cell viability, HKE3 colon cancer cells; format: cell-based, human; conditions: HKE3, Colon; for IC50: Homo sapiens, read-out: IC50 (−LogM) (converted)
[13] = test system: SKOV3; assay: Cell viability, SKOV3 ovary cancer cells; format: cell-based; conditions: for IC50: Homo sapiens, SK-OV-3
[14] = test system: H460 cells; assay: cells; conditions: Homo sapiens
[15] = test system: Ovca429; assay: Cell viability, Ovca429 ovary cancer cells; format: cell-based
[16] = test system: H1933; assay: Cell viability, H1933 lung cancer cells; format: cell-based, human; conditions: for IC50: Homo sapiens, read-out: IC50 (−LogM) (converted)
[17] = test system: Heb44; assay: Cell viability, Heb44 kidney cells; format: cell-based
[18] = test system: H2087; assay: Cell viability, H2087 lung cancer cells; format: cell-based, human; conditions: for IC50: Homo sapiens
[19] = test system: Hct116; assay: Cell viability, Hct116 colon cancer cells; format: cell-based, human; conditions: for IC50: Homo sapiens
[20] = test system: Ovcar443; assay: Cell viability, Ovcar443 ovary cancer cells; format: cell-based
[21] = test system: H2122; assay: Cell viability, H2122 lung cancer cells; format: cell-based, human; conditions: for IC50: Homo sapiens
[22] = test system: A549 cells; assay: Cell viability, A549 lung cancer cells; format: cell-based, human; conditions: A549, Lung
[23] = test system: Sw620; assay: Cell viability, Sw620 colon cancer cells; format: cell-based, human; conditions: for IC50: Homo sapiens
[24] = test system: DLD1; assay: Cell viability, DLD1 colon cancer cells; format: cell-based, human; conditions: for IC50: Homo sapiens
[25] = test system: A549CK8; assay: Cell viability, A549CK8 lung cancer cells; format: cell-based, human; conditions: for IC50: Homo sapiens, read-out: IC50 (−LogM) (converted)
[26] = test system: Ovcar3; assay: Cell viability, Ovcar3 ovary cancer cells; format: cell-based; conditions: for IC50: Homo sapiens, OVCAR-3
[27] = test system: H322 cells; assay: Cell viability, H322 lung cancer cells; format: cell-based, human; conditions: for IC50: Homo sapiens
[28] = test system: H23; assay: Cell viability, H23 lung cancer cells; format: cell-based, human; conditions: for IC50: Homo sapiens
[29] = test system: T29Kt1 cells; conditions: Table 1, value is the negative log10 of mol/L
[30] = test system: H460 cells; conditions: H460, Lung
[31] = NCI-H460, read-out: IC50 (−LogM), H460, Lung (converted)
[32] = NCI-H460, read-out: IC50 in H460 cells, Table 1

OCc1cn(Cc2ccccc2Cl)c2ccccc12 [Oncrasin K006, [1-(2-chlorobenzyl)-1H-indol-3-yl]methanol]
IC50 ([1]; NCI-H1299, h1299, Lung, read-out: IC50 (−LogM) (converted)): 10 µM | IC50 ([2]; NCI-H1395, H1395, Lung, read-out: IC50 (−LogM) (converted)): 31.6 µM | IC50 ([3]; H226B, Lung, first H226B line, read-out: IC50 (−LogM) (converted)): 0.00251 µM | IC50 ([3]; H226B, Lung, second H226B line, read-out: IC50 (−LogM) (converted)): 0.0398 µM | IC50 [4]: 31.6 µM | IC50 ([5]; miapac, Pancrease): < 31.6 µM | IC50 ([6]; NCI-H2009, H2009, Lung, read-out: IC50 (−LogM) (converted)): 31.6 µM | IC50 [7]: 2 µM | IC50 ([8]; ASPC1, Pancrease, read-out: IC50 (−LogM) (converted)): 3.98 µM | IC50 ([9]; Homo sapiens, Pancreatic cancer cell, read-out: IC50 (−LogM) (converted)): 12.6 µM | IC50 [10]: 2.51 µM | IC50 ([11]; CT116P53, Colon): < 31.6 µM | IC50 ([12]; first HKE3 line): 0.126 µM | IC50 ([12]; second HKE3 line): 0.251 µM | IC50 [13]: 3.98 µM | IC50 [14, 31]: 0.1 µM | IC50 [14, 32]: 0.1 µM | IC50 [15]: 10 µM | IC50 ([16]; H1933, Lung): 15.8 µM | IC50 [17]: 0.01 µM | IC50 ([18]; NCI-H2087, H2087, Lung, read-out: IC50 (−LogM) (converted)): 25.1 µM | IC50 ([19]; HCT-116, Hct116, Colon, read-out: IC50 (−LogM) (converted)): 0.501 µM | IC50 [20]: 7.94 µM | IC50 ([21]; NCI-H2122, H2122, Lung, read-out: IC50 (−LogM) (converted)): 3.98 µM | IC50 ([22]; Homo sapiens, read-out: IC50 (−LogM) (converted)): 12.6 µM | IC50 ([23]; SW-620, Sw620, Colon, read-out: IC50 (−LogM) (converted)): 10 µM | IC50 ([24]; DLD-1, DLD1, Colon, read-out: IC50 (−LogM) (converted)): < 31.6 µM | IC50 ([25]; A549CK8, Lung): 3.98 µM | IC50 [26]: 0.631 µM | IC50 ([27]; NCI-H322, H322, Lung, read-out: IC50 (−LogM) (converted)): 31.6 µM | IC50 ([28]; NCI-H23, H23, Lung, read-out: IC50 (−LogM) (converted)): 25.1 µM

OCc1cn(Cc2ccc(Br)cc2)c2ccccc12 [Oncrasin K73, 1H-Indole-3-methanol, 1-{(4-bromophenyl)methyl]-(9CI)]
IC50 (−LogM) ([1]; h1299, Lung): >4.5 −LogM | IC50 (−LogM) ([2]; H1395, Lung): >4.5 −LogM | IC50 (−LogM) ([3]; H226B, Lung, first H226B line): 7 −LogM | IC50 (−LogM) ([3]; H226B, Lung, second H226B line): 5.8 −LogM | IC50 (−LogM) [4]: 4.5 −LogM | IC50 (−LogM) ([5]; miapac, Pancrease): >4.5 −LogM | IC50 (−LogM) ([6]; H2009, Lung): >4.5 −LogM | IC50 (−LogM) [7]: 6.1 −LogM | IC50 (−LogM) ([8]; ASPC1, Pancrease): 5.5 −LogM | IC50 (−LogM) [9]: 5.5 −LogM | IC50 (−LogM) ([11]; CT116P53, Colon): >4.5 −LogM | IC50 (−LogM) ([12]; first HKE3 line): 6.5 −LogM | IC50 (−LogM) ([12]; second HKE3 line): 6.1 −LogM | IC50 (−LogM) [13]: 5.5 −LogM | IC50 (−LogM) [15]: 5.5 −LogM | IC50 (−LogM) ([16]; H1933, Lung): 4.5 −LogM | IC50 (−LogM) [17]: 7.4 −LogM | IC50 (−LogM) ([18]; H2087, Lung): 4.5 −LogM | IC50 (−LogM) ([19]; Hct116, Colon): 5.5 −LogM | IC50 (−LogM) [20]: 4.8 −LogM | IC50 (−LogM) ([21]; H2122, Lung): 5.6 −LogM | IC50 (−LogM) [22]: >4.5 −LogM | IC50 (−LogM) ([23]; Sw620, Colon): >4.5 −LogM | IC50 (−LogM) ([24]; DLD1, Colon): >4.5 −LogM | IC50 (−LogM) ([25]; A549CK8, Lung): 5.5 −LogM | IC50 (−LogM) [26]: 5.9 −LogM | IC50 (−LogM) ([27]; H322, Lung): >4.5 −LogM | IC50 in T29k cells [29]: 6.4 | IC50 (−LogM) ([28]; H23, Lung): 4.5 −LogM | IC50 (−LogM) [30]: 8.5 −LogM

O=Cc1cn(Cc2ccc(Br)cc2)c2ccccc12 [Oncrasin K029, 1-(4-bromobenzyl)-1H-indole-3-carbaldehyde]
IC50 ([1]; NCI-H1299, read-out: IC50 (−LogM), h1299, Lung (converted)): 12.6 µM | IC50 (−LogM) ([1]; h1299, Lung, listed as OnK29): 5.1 −LogM | IC50 ([2]; NCI-H1395, read-out: IC50 (−LogM) (converted)): 31.6 µM | IC50 (−LogM) ([3]; H226B, Lung, first H226B line, listed as Onk29): 7.1 −LogM | IC50 (−LogM) ([3]; H226B, Lung, second H226B line, listed as Onk29): 5.5 −LogM | IC50 ([3]; read-out: IC50 (−LogM), H226B, Lung, first H226B line (converted)): 0.126 µM | IC50 ([3]; read-out: IC50 (−LogM), H226B, Lung, second H226B line (converted)): 5.01 µM | IC50 [4]: 31.6 µM | IC50 [5]: < 31.6 µM | IC50 ([6]; NCI-H2009, read-out: IC50 (−LogM) (converted)): < 31.6 µM | IC50 (−LogM) ([7]; listed as OnK29): 5.6 −LogM | IC50 (−LogM) ([7]; listed as Onk29): 6.6 −LogM | IC50 (−LogM) ([8]; ASPC1, Pancrease, listed as OnK29): 5.3 −LogM | IC50 ([8]; ASPC1, read-out: IC50 (−LogM), ASPC1, Pancrease (converted)): 3.98 µM | IC50 (−LogM) ([9]; listed as OnK29): 5 −LogM | IC50 (−LogM) ([9]; listed as Onk29): 6 −LogM | IC50 [11]: < 31.6 µM | IC50 (−LogM) ([12]; first HKE3 line, listed as OnK29): 6.6 −LogM | IC50 (−LogM) ([12]; first HKE3 line, listed as Onk29): 7 −LogM | IC50 (−LogM) ([12]; second HKE3 line, listed as OnK29): 5.8 −LogM | IC50 (−LogM) ([12]; second HKE3 line, listed as Onk29): 6.3 −LogM | IC50 [13]: 3.16 µM | IC50 [14, 31]: 0.00316 µM | IC50 [14, 32]: 0.00316 µM | IC50 [15]: 3.16 µM | IC50 [16]: 31.6 µM | IC50 (−LogM) ([17]; listed as OnK29): 7.2 −LogM | IC50 (−LogM) ([17]; listed as Onk29): 8.1 −LogM | IC50 ([18]; NCI-H2087, read-out: IC50 (−LogM) (converted)): 31.6 µM | IC50 (−LogM) ([19]; Hct116, Colon, listed as OnK29): 5.5 −LogM | IC50 ([19]; HCT-116, read-out: IC50 (−LogM), Hct116, Colon (converted)): 2.51 µM | IC50 [20]: 10 µM | IC50 ([21]; NCI-H2122, read-out: IC50 (−LogM) (converted)): 2 µM | IC50 (−LogM) ([22]; listed as OnK29): 5 −LogM | IC50 (−LogM) ([22]; listed as Onk29): >4.5 −LogM | IC50 ([23]; SW-620, read-out: IC50 (−LogM), Sw620, Colon (converted)): 31.6 µM | IC50 (−LogM) ([23]; Sw620, Colon, listed as OnK29): >4.5 −LogM | IC50 ([24]; DLD-1, read-out: IC50 (−LogM) (converted)): < 31.6 µM | IC50 [25]: 3.16 µM | IC50 [26]: 5.01 µM | IC50 ([27]; NCI-H322, read-out: IC50 (−LogM) (converted)): 31.6 µM | IC50 in T29k cells ([29]; listed as K29): 6.6 | IC50 in T29k cells [29]: 5 | IC50 ([28]; NCI-H23, read-out: IC50 (−LogM) (converted)): 31.6 µM
